Where two headings read alike, the source gives them in different places.
Columns and labels:
[1] = tested on: p34cdc2/cyclin B (CDK1/cyclin B); test: Inhibition of the p34cdc2/cyclin B activity (32P transfer from ATP to histone H1); type: biochemical, starfish or human recombinant
Method: The protein Histone H1 (type III-S) is obtained from Sigma. […] The reaction medium is prepared according to the following composition: 10 μl of enzymatic preparation are added to 5 μl of Histone H1 (5 mg/ml in buffer C) and to 7 μl of buffer C and mixed. 17.5 μl of the mixture are distributed in the tubes immediately before the test. 3 μl of inhibiting agent to be tested are added to each tube. The reaction is begun by the addition of 5 μl of the ATP solution, followed by incubating for 15 minutes at 30° C. The reaction is halted by the addition of 0.5 volumes of Laemli 3× buffer. […] The analysis and the quantification of the phosphorylation of the Histone H1 are carried out using an Instant-Imager device (Packard).

C6 = test: cells; details: Rattus norvegicus, C6, 288 h, read-out: IC50 inhibition of clonogenicity
Method: (§1) The Calc18 human tumour line is a gift from Professor G. Riou (Institut Gustave Roussy, Villejuif, France).
(§2) The cells in exponential growth phase are trypsinized, washed in PBS 1× and diluted to a final concentration of 5000 cells/ml in complete medium. The test products (in a volume of 50 μl) are added to 2.5 ml of suspension. […] The mixture is then immediately poured into Petri dishes and left at +4° C. for 5 minutes to solidify the agar.
(§3) The results are expressed as percentage of inhibition of the clonogenicity with respect to controls. The IC50 is determined graphically from the mean results determined for each concentration of compound.

Calc18 = test: cells; details: Homo sapiens, 288 h, read-out: IC50 inhibition of clonogenicity
Method: as §1, §2, §3

HCT-116 = test: cells; details: Homo sapiens, HCT-116, 288 h, read-out: IC50 inhibition of clonogenicity
Method: as §1, §2, §3

HCT-8 = test: cells; details: Homo sapiens, HCT-8, 288 h, read-out: IC50 inhibition of clonogenicity
Method: as §1, §2, §3

HLE = test: cells; details: Homo sapiens, 288 h, read-out: IC50 inhibition of clonogenicity
Method: as §1, §2, §3

HLF = test: cells; details: Homo sapiens, 288 h, read-out: IC50 inhibition of clonogenicity
Method: as §1, §2, §3

HT-29 = test: cells; details: Homo sapiens, HT-29, 288 h, read-out: IC50 inhibition of clonogenicity
Method: as §1, §2, §3

Lovo = test: cells; details: Homo sapiens, 288 h, read-out: IC50 inhibition of clonogenicity
Method: as §1, §2, §3

PC-14 = test: cells; details: Homo sapiens, PC-14, 288 h, read-out: IC50 inhibition of clonogenicity
Method: as §1, §2, §3

PC-3 = test: cells; details: Homo sapiens, PC-3, 288 h, read-out: IC50 inhibition of clonogenicity
Method: as §1, §2, §3

HCT-8 cells = details: HCT-8, 48 hours
Method: The percentage of mitotic cells and of cells having apoptotic nuclear bodies is determined by examination and counting of a sample of at least 300 cells distributed over several points of the slide using a fluorescent microscope.

HCT-116 cells [2] = details: HCT-116, 1 μg/ml
Method: The HCT-116 cells are seeded in Nunc 6-well dishes.
The cells are treated with 30 μM BrDU for 30 minutes and then trypsinized. After fixing the cells in 1% paraformaldehyde for 16 hours, the latter are digested in pepsin/hydrochloric acid and then rinsed in PBS 1×. Immunolabelling is carried out with an anti-BrDU primary antibody (Becton Dickinson) and a GAM-FITC secondary antibody (Coulter). The DNA is subsequently labelled with propidium iodide in PBS comprising 1 mg/ml of boiled RNAse. This method makes it possible to count the cells in the G1, S and G2M phases.

HCT-116 cells [3] = test: cells; details: Homo sapiens, HCT-116, 96 h, read-out: HCT-116 IC50 (inhibition of proliferation)
Method: The HCT-116 cells are cultured as a layer in a culture flask in Dulbecco's medium comprising L-glutamine 2 mM, penicillin 200 U/ml, streptomycin 2 μg/ml, with the addition of 10% of heat-inactivated foetal calf serum.
The incorporation of the dye in the cell, which reflects cell growth, is evaluated by spectrophotometry at a wavelength of 540 nm for each sample using a Dynatech MR5000 reading device.
For each compound concentration tested, the results are expressed as percentage of inhibition of cell growth and are calculated from the untreated control and from the cell-free (blank) culture medium according to the following formula:
(Value compound−value blank/value cell control−value blank)×100.

SMILES: O=C1Nc2ccc(-c3cccnc3)cc2C1=Cc1cnc[nH]1 [Compound 1, 1,3-dihydro-3-(imidazol-4-ylmethylene)-5-(pyrid-3-yl)-2H-indolin-2-one]
- CDK1 % inhibition at 10 μM [1]: 99%
- IC50 (C6): 10.8 µM
- IC50 (Calc18): 1.06 µM
- IC50 (HCT-116): 0.28 µM
- IC50 (HCT-8): 1.04 µM
- IC50 (HLE): 1.2 µM
- IC50 (HLF): 1.1 µM
- IC50 (HT-29): 1.42 µM
- IC50 (Lovo): 0.9 µM
- IC50 (PC-14): 1.1 µM
- IC50 (PC-3): 0.19 µM
- Apoptotic cells (%) (HCT-8 cells; 0.1 μg/ml): 8.5%
- Apoptotic cells Factor/control (HCT-8 cells; 0.1 μg/ml): 3.5
- Mitotic cells (%) (HCT-8 cells; 0.1 μg/ml): 2.8%
- Mitotic cells Factor/control (HCT-8 cells; 0.1 μg/ml): 0.4
- Apoptotic cells (%) (HCT-8 cells; 1 μg/ml): 16%
- Apoptotic cells Factor/control (HCT-8 cells; 1 μg/ml): 6.6
- Mitotic cells (%) (HCT-8 cells; 1 μg/ml): 0.7%
- Mitotic cells Factor/control (HCT-8 cells; 1 μg/ml): 0.1
- Apoptotic cells (%) (HCT-8 cells; 10 μg/ml): 42.5%
- Apoptotic cells Factor/control (HCT-8 cells; 10 μg/ml): 17.7
- Mitotic cells (%) (HCT-8 cells; 10 μg/ml): 0.4%
- Mitotic cells Factor/control (HCT-8 cells; 10 μg/ml): 0.06
- Cells in G1 phase (%) (HCT-116 cells [2]; contact time 4 h): 62.2%
- Cells in G2-M phase (%) (HCT-116 cells [2]; contact time 4 h): 16.4%
- Cells in S phase (%) (HCT-116 cells [2]; contact time 4 h): 20.1%
- Cells in G1 phase (%) (HCT-116 cells [2]; contact time 24 h): 26.8%
- Cells in G2-M phase (%) (HCT-116 cells [2]; contact time 24 h): 31.4%
- Cells in S phase (%) (HCT-116 cells [2]; contact time 24 h): 39.5%
- Cells in G1 phase (%) (HCT-116 cells [2]; contact time 48 h): 7.9%
- Cells in G2-M phase (%) (HCT-116 cells [2]; contact time 48 h): 58.9%
- Cells in S phase (%) (HCT-116 cells [2]; contact time 48 h): 30.9%
- Cells in G1 phase (%) (HCT-116 cells [2]; contact time 72 h): 7.8%
- Cells in S phase (%) (HCT-116 cells [2]; contact time 72 h): 5.1%
- IC50 (HCT-116 cells [3]): 0.28 µM

SMILES: CNC(=O)c1ccc2c(c1)C(=Cc1c[nH]cn1)C(=O)N2 [Compound 3, 1,3-dihydro-3-(imidazol-4-ylmethylene)-5-(N-methylcarboxamido)-2H-indolin-2-one]
- CDK1 % inhibition at 10 μM ([1]; 10 μM): 100%

SMILES: CC(=O)Nc1ccc2c(c1)C(=Cc1c[nH]cn1)C(=O)N2 [Compound 4, 1,3-dihydro-3-(imidazol-4-ylmethylene)-5-(acetylamino)-2H-indolin-2-one]
- CDK1 % inhibition at 10 μM ([1]; 10 μM): 100%

SMILES: O=C1Nc2ccc(Br)cc2C1=Cc1cnc[nH]1 [Compound 5-3]
- CDK1 % inhibition at 10 μM ([1]; 10 μM): 100%

SMILES: O=C1Nc2ccc([N+](=O)[O-])cc2C1=Cc1ccc[nH]1 [Compound 5-6]
- CDK1 % inhibition at 10 μM ([1]; 10 μM): 91%

SMILES: O=C1Nc2ccc(C(=O)c3cccs3)cc2C1=Cc1cnc[nH]1 [Compound 5-7]
- CDK1 % inhibition at 10 μM ([1]; 10 μM): 100%

SMILES: O=C1Nc2ccc([N+](=O)[O-])cc2C1=Cc1cnc[nH]1 [Compound 5-8]
- CDK1 % inhibition at 10 μM ([1]; 10 μM): 81%

SMILES: Cc1nc[nH]c1C=C1C(=O)Nc2ccc(-c3cccnc3)cc21 [Compound 5-10]
- CDK1 % inhibition at 10 μM ([1]; 10 μM): 100%

SMILES: Cc1nc[nH]c1C=C1C(=O)Nc2ccc(C(=O)O)cc21 [Compound 5-11]
- CDK1 % inhibition at 10 μM ([1]; 10 μM): 100%

SMILES: Cc1nc[nH]c1C=C1C(=O)Nc2ccc(S(N)(=O)=O)cc21 [Compound 5-12]
- CDK1 % inhibition at 10 μM ([1]; 10 μM): 100%
